Reference: US20030199567A1, “Combinations of an alpha-2-delta ligand with a selective inhibitor of cyclooxygenase-2” (priority 2002, published 2003)

Tests used:
[1] = cited from earlier work
[2] = system: Experimental Osteoarthritis in Rabbit; test: Induction of Experimental Osteoarthritis in Rabbit (EOA in Rabbit); type: in vivo; details: conclusion drawn from the expected study
Procedure: Induction of Experimental Osteoarthritis in Rabbit (“EOA in Rabbit”)
Normal rabbits are anaesthetized and anteromedial incisions of the right knees performed. The anterior cruciate ligaments are visualized and sectioned. The wounds are closed and the animals are housed in individual cages, exercised, and fed ad libitum. Rabbits are given either vehicle (water), a combination comprising valdecoxib and gabapentin, or a combination comprising valdecoxib and 3-(1-aminomethyl-cyclohexylmethyl)-4h-[1,2,4]oxadiazol-5-one hydrochloride (10 rabbits per group). […]
The cartilage changes on the femoral condyles and tibial plateaus are graded separately under a dissecting microscope (Stereozoom, Bausch & Lomb, Rochester, N.Y.). […] The surface area changes are measured and expressed in mm^2. […]
Representative specimens of synovial membrane from the medial and lateral knee compartments are dissected from underlying tissues. […] The average is calculated and considered as a unit for the whole knee. […]
Mean values and SEM are calculated and statistical analysis is done using the Mann-Whitney U-test.

| Compound | tolerability ([1]; combined analysis of various clinical studies) | overall upper gastrointestinal safety profile (ulcers, perforations, obstructions and GI bleeds) ([1]; versus conventional NSAIDs such as ibuprofen, diclofenac and naproxen) | treatment of cartilage damage by the Alpha-2-delta ligand [2] |
| --- | --- | --- | --- |
| Cc1onc(-c2ccccc2)c1-c1ccc(S(N)(=O)=O)cc1 [valdecoxib, 4-(5-methyl-3-phenyl-4-isoxazolyl)-benzenesulfonamide] | well tolerated | significantly better |  |
| NCC1(CC(=O)O)CCCCC1 [gabapentin] |  |  | effective |
| Cl.NCC1(Cc2noc(=O)[nH]2)CCCCC1 [3-(1-aminomethyl-cyclohexylmethyl)-4H-[1,2,4]oxadiazol-5-one hydrochloride] |  |  | effective |
